Values of other authors as cited in patent publication US5162573A, “Valproic and (E)-2-valproenoic acid derivatives, and pharmaceutical compositions therefrom” (Chiesi Farmaceutici S.p.A., priority 1986, dated 1992).

What was measured:
[1] = in comparison with valproic acid
[2] = not given; remark: listed apart in the source
[3] = oral administration of equimolecular doses, in comparison with valproic acid

SMILES | toxic effects (in comparison with valproic acid) | hepatic tolerability / hepatic reactions (in vivo) | teratogenic effects (in vivo) | anticonvulsivant activity, potency and duration of action [1] | half life in man [2] [h] | hepatic concentration [3]
CC/C=C(\CCC)C(=O)O [valproenoic acid, (E)-2-propyl-2-pentenoic acid] | remarkably reduced toxic effects | much better tolerated at hepatic level | totally devoid of teratogenic effects | a wide spectrum anticonvulsivant activity, a potency and a duration of action comparable to those of valproic acid | 12.5 | remarkably reduced hepatic concentration in comparison with valproic acid
CCCC(CCC)C(=O)O [valproic acid, 2-propyl-2-pentanoic acid] | – | – | teratogenic effects | – | 9 to 10 | –
